Columns and labels:
Test in all cases: Test B pre-/postemergence plant response
Format in all cases: in vivo
[1] = system: Russian thistle (Salsola iberica); settings: Preemergence; for Russian Thistle plant response rating: scale 0 to 100
Summary of the method: (§1)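 Preemergence and postemergence (plants 2-18 cm, 1- to 4-leaf stage) applications used test chemicals in a non-phytotoxic solvent with surfactant. Plants were held in a greenhouse 13 to 15 days, then rated visually against controls on a 0-100 scale (0 no effect, 100 complete control).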

[2] = system: bermudagrass (Cynodon dactylon); settings: for Bermudagrass plant response rating: 8 g ai/ha
Summary of the method: as §1

[3] = system: cocklebur (Xanthium strumarium); settings: for Cocklebur plant response rating: 8 g ai/ha
Summary of the method: as §1

corn (Zea mays) = system: corn (Zea mays)
Summary of the method: as §1

[4] = system: giant foxtail (Setaria faberii)
Summary of the method: as §1

[5] = system: goosegrass (Eleusine indica)
Summary of the method: as §1

[6] = system: green foxtail (Setaria viridis)
Summary of the method: as §1

kochia (Kochia scoparia) = system: kochia (Kochia scoparia)
Summary of the method: as §1

[7] = system: lambsquarters (Chenopodium album)
Summary of the method: as §1

soybean (Glycine max) = system: soybean (Glycine max)
Summary of the method: as §1

[8] = system: velvetleaf (Abutilon theophrasti)
Summary of the method: as §1

[9] = system: wheat (Triticum aestivum)
Summary of the method: as §1

[10] = system: woolly cupgrass (Eriochloa villosa)
Summary of the method: as §1

[11] = system: yellow nutsedge (Cyperus esculentus)
Summary of the method: as §1

[12] = Postemergence, 16 g ai/ha, scale 0 to 100
[13] = Postemergence, 31 g ai/ha, scale 0 to 100
[14] = Postemergence, 62 g ai/ha, scale 0 to 100, 0 no effect, 100 complete control
[15] = Preemergence, 16 g ai/ha, scale 0 to 100 (0 no effect, 100 complete control)
[16] = Preemergence, 31 g ai/ha, scale 0 to 100 (0 no effect, 100 complete control)
[17] = Preemergence, 62 g ai/ha, 0 to 100 scale, 0 no effect, 100 complete control
[18] = 8 g ai/ha, postemergence, 0-100 scale
[19] = Preemergence, 8 g ai/ha, scale 0 to 100
[20] = Preemergence, 16 g ai/ha, scale 0 to 100

Cc1cc(-c2ccc(Cl)cc2)nn1-c1c(OC(=O)OCC(C)C)cnn(C)c1=O [Compound 57]
85: Plant response rating, Bermudagrass [2, 12] | Plant response rating, Corn (corn (Zea mays); [16]) | Plant response rating, Goosegrass [5, 13] | Plant response rating, Cupgrass, Woolly [10, 16]
60: Corn plant response rating (corn (Zea mays); [20])
98: Plant response rating, Bermudagrass [2, 13] | Plant response rating, Corn (corn (Zea mays); [13]) | Plant response rating, Foxtail, Giant [4, 13] | Foxtail, Giant plant response rating [4, 19] | Foxtail, Giant plant response rating [4, 20] | Plant response rating, Goosegrass [5, 16]
45: Plant response rating, Wheat [9, 12]
90: Plant response rating, Goosegrass [5, 14] | Plant response rating, Wheat [9, 13] | Plant response rating, Wheat [9, 14] | Plant response rating, Cupgrass, Woolly [10, 12]
100: Plant response rating, Bermudagrass [2, 14] | Bermudagrass plant response rating ([2]; Preemergence, scale 0 to 100 (0 no effect, 100 complete control)) | Plant response rating, Bermudagrass [2, 15] | Plant response rating, Bermudagrass [2, 16] | Plant response rating, Bermudagrass [2, 17] | Plant response rating, Corn (corn (Zea mays); [14]) | Plant response rating, Foxtail, Giant [4, 14] | Plant response rating, Foxtail, Giant [4, 16] | Plant response rating, Foxtail, Giant [4, 17] | Plant response rating, Goosegrass [5, 17] | Plant response rating, Foxtail, Green [6, 13] | Plant response rating, Foxtail, Green [6, 14] | Plant response rating, Foxtail, Green [6, 16] | Plant response rating, Foxtail, Green [6, 17] | Foxtail, Green plant response rating [6, 20] | Plant response rating, Cupgrass, Woolly [10, 13] | Plant response rating, Cupgrass, Woolly [10, 14] | Plant response rating, Cupgrass, Woolly [10, 17]
70: Foxtail, Green plant response rating [6, 19]
15: Wheat plant response rating [9, 20]
65: Bermudagrass plant response rating ([2]; postemergence, 0-100 scale) | Goosegrass plant response rating [5, 18] | Plant response rating, Lambsquarters [7, 17] | Cupgrass, Woolly plant response rating [10, 18]
30: Wheat plant response rating [9, 18]
0: Plant response rating, Russian Thistle ([1]; 31 g ai/ha, scale 0 to 100 (0 no effect, 100 complete control)) | Plant response rating, Russian Thistle ([1]; 62 g ai/ha, 0 to 100 scale, 0 no effect, 100 complete control) | Russian Thistle plant response rating ([1]; 8 g ai/ha) | Russian Thistle plant response rating ([1]; 16 g ai/ha) | Cocklebur plant response rating ([3]; postemergence, 0-100 scale) | Plant response rating, Cocklebur [3, 12] | Plant response rating, Cocklebur [3, 13] | Plant response rating, Cocklebur [3, 14] | Plant response rating, Cocklebur [3, 15] | Plant response rating, Cocklebur [3, 16] | Plant response rating, Cocklebur [3, 17] | Cocklebur plant response rating ([3]; Preemergence, scale 0 to 100) | Corn plant response rating (corn (Zea mays); [18]) | Plant response rating, Corn (corn (Zea mays); [12]) | Corn plant response rating (corn (Zea mays); [19]) | Goosegrass plant response rating [5, 19] | Goosegrass plant response rating [5, 20] | Kochia plant response rating (kochia (Kochia scoparia); [18]) | Plant response rating, Kochia (kochia (Kochia scoparia); [12]) | Plant response rating, Kochia (kochia (Kochia scoparia); [13]) | Plant response rating, Kochia (kochia (Kochia scoparia); [14]) | Plant response rating, Kochia (kochia (Kochia scoparia); [16]) | Plant response rating, Kochia (kochia (Kochia scoparia); [17]) | Kochia plant response rating (kochia (Kochia scoparia); [19]) | Kochia plant response rating (kochia (Kochia scoparia); [20]) | Lambsquarters plant response rating [7, 18] | Plant response rating, Lambsquarters [7, 12] | Plant response rating, Lambsquarters [7, 13] | Plant response rating, Lambsquarters [7, 14] | Lambsquarters plant response rating [7, 19] | Lambsquarters plant response rating [7, 20] | Soybean plant response rating (soybean (Glycine max); [18]) | Plant response rating, Soybean (soybean (Glycine max); [12]) | Plant response rating, Soybean (soybean (Glycine max); [13]) | Plant response rating, Soybean (soybean (Glycine max); [14]) | Plant response rating, Soybean (soybean (Glycine max); [16]) | Plant response rating, Soybean (soybean (Glycine max); [17]) | Soybean plant response rating (soybean (Glycine max); [19]) | Soybean plant response rating (soybean (Glycine max); [20]) | Velvetleaf plant response rating [8, 18] | Plant response rating, Velvetleaf [8, 12] | Plant response rating, Velvetleaf [8, 13] | Plant response rating, Velvetleaf [8, 14] | Plant response rating, Velvetleaf [8, 16] | Plant response rating, Velvetleaf [8, 17] | Velvetleaf plant response rating [8, 19] | Velvetleaf plant response rating [8, 20] | Cupgrass, Woolly plant response rating [10, 19] | Nutsedge, Yellow plant response rating [11, 18] | Plant response rating, Nutsedge, Yellow [11, 12] | Plant response rating, Nutsedge, Yellow [11, 13] | Plant response rating, Nutsedge, Yellow [11, 14] | Plant response rating, Nutsedge, Yellow [11, 16] | Plant response rating, Nutsedge, Yellow [11, 17] | Nutsedge, Yellow plant response rating [11, 19] | Nutsedge, Yellow plant response rating [11, 20]
95: Plant response rating, Corn (corn (Zea mays); [17]) | Plant response rating, Foxtail, Giant [4, 12] | Plant response rating, Foxtail, Green [6, 12]
40: Plant response rating, Wheat [9, 16]
50: Plant response rating, Wheat [9, 17]
80: Foxtail, Giant plant response rating [4, 18] | Plant response rating, Goosegrass [5, 12] | Foxtail, Green plant response rating [6, 18]
20: Plant response rating, Lambsquarters [7, 16] | Cupgrass, Woolly plant response rating [10, 20]

From patent publication US20100267561A1, “HERBICIDAL PYRIDAZINONE DERIVATIVES” (priority 2007, published 2010)
